{"source": "patent US12582614B2", "about": "“Composition for preventing, alleviating or treating sarcopenia, containing D-ribo-2-hexulose as active ingredient” (KYUNGPOOK NATIONAL UNIVERSITY INDUSTRY-ACADEMIC COOPERATION …, priority 2021, dated 2026)", "assay_type_in_all_cases": "in vivo, C57BL/6J male mice", "key": {"aged mice": {"system": "aged mice", "experiment": "Left hind leg thickness (digital calipers)", "settings": "week 12, DRH group vs NC group", "description": "The thicknesses of left hind legs were measured using Bluetec digital calipers (Korea, BLUETEC, BD500) every 4 weeks during the experiment period, and the leg thickness was divided by the body weight of each mouse in order to minimize differences between individuals (mm/100 g× body weight)."}, "myostatin": {"system": "myostatin", "experiment": "IHC analysis of muscle tissue, myostatin", "settings": "gastrocnemius muscle fibers, increase in NC vs YC", "description": "For morphological tissue observation, parts of liver and muscle tissues were fixed with a 10% formaldehyde solution for 24 hours. Thereafter, the samples were subjected to replacement with the same solution twice, dehydrated twice with ethanol, embedded in paraffin, and treated with poly-L-lysine to prepare tissue slices having a thickness of 5 μm. For morphological analysis, among the prepared tissue sections, the liver tissue was stained with H&E and MT, and the muscle tissue was stained with H&E and Sirius red, and magnified 200 times under an optical microscope. For IHC analysis, the muscle tissue was stained with IGF-1 and Myostatin, and then observed under an optical microscope."}, "[1]": {"system": "MyoD, Myf5, Myf6, Myogenin, Mef2, MuRF1, Atrogin1, FoxO3", "experiment": "Real-time PCR of muscle strength-related genes", "description": "(§1) After total RNA was isolated, total complementary DNA (cDNA) was synthesized. For real-time PCR analysis, template cDNA was diluted with RNAse-free water and used at a concentration of 25 ng/μL. Then, gene expression was analyzed using a QuantitTeck SYBR Green PCR kit (QIAGEN, Germany).\nEach of the reaction solutions consisted of 10 μL of SYBR Green, 2 μL of a template, and 200 μM primers. RNAse-free water was added to a final volume of 20 μL, and reacted at 94° C. for 15 seconds, and then 58° C. and 72° C. for 30 seconds. The reaction solution was reacted 40 times at 65° C. for 30 seconds at 15 seconds per cycle. In this case, by monitoring the fluorescence signal for each cycle and analyzing the resulting threshold cycle (Ct), mRNA expression between the respective experimental groups was quantitatively analyzed using a CFX96 Real-time system (Bio-Rad, USA). GAPDH (Gene ID 14433) was used as an internal transcriptional marker, and the gene primers used for amplification were as follows: MyoD (myoblast determination protein 1, Gene ID 17927), Myf5 (Gene ID 17877), Myf6 (Gene ID 17878), Myogenin (Gene ID 17928), Mef2 (Gene ID 17260), MuRF1 (Gene ID […]), Atrogin1 (Gene ID 67731), FoxO3 (Gene ID 56484), CerS1 (Gene ID 93898(3)1), CIDEC1 (Gene ID 12700), SCD1 (Gene ID 20249), Adipsin (complement factor D, Gene ID 11537), Adiponectin (Gene ID 11450), Haptoglobin (Gene ID 15439), and Neuronatin (Gene ID 18111)."}, "[2]": {"system": "differentially expressed genes (DEG)", "experiment": "RT-PCR and Western blotting verification of differentially expressed genes", "settings": "verification of mRNA-seq results", "description": "as §1\nEach of the reaction solutions consisted of 10 μL of SYBR Green, 2 μL of a template, and 200 μM primers. RNAse-free water was added to a final volume of 20 μL, and reacted at 94° C. for 15 seconds, and then 58° C. and 72° C. for 30 seconds. The reaction solution was reacted 40 times at 65° C. for 30 seconds at 15 seconds per cycle. In this case, by monitoring the fluorescence signal for each cycle and analyzing the resulting threshold cycle (Ct), mRNA expression between the respective experimental groups was quantitatively analyzed using a CFX96 Real-time system (Bio-Rad, USA). […]\nThe amount of cytoplasmic and membrane proteins was quantified according to the Bradford method. […]"}, "[3]": {"experiment": "Lipid profiles of muscles and plasma", "description": "Plasma TG and TC analysis was performed using an enzyme kit (Asan Pharmaceutical Co., Ltd., Korea). Free fatty acid (FFA) was also measured using an enzyme kit (Abcam., USA). Liver and muscle lipids were extracted, and the dried lipid residue was then dissolved in 1 mL of ethanol for the measurement of TG, TC, and FFA. For emulsification, Triton X-100 and a sodium cholate solution were added to 200 μL of the dissolved lipid solution. The TG, TC, and FFA were analyzed in the same kit as the enzyme kit used for plasma lipid analysis."}, "TNF-α, IL-4, IL-1β, IL-6": {"system": "TNF-α, IL-4, IL-1β, IL-6", "experiment": "Plasma inflammatory cytokine levels", "settings": "between the groups (YC, NC, DRH)", "description": "(§2) For cytokine analysis, plasma cytokines (TNF-α, IL-1β, and IL-4) were measured with a Merck Millipore product (MCYTOMAG-70K, Merck, USA). Plasma (30 μL) from each mouse was analyzed in duplicate. Hormone analysis was performed using a cortisol and testosterone parameter assay kit (R&D Systems, USA)."}, "[4]": {"experiment": "Testosterone and cortisol levels", "description": "as §2"}, "[5]": {"settings": "decrease in NC vs YC, DRH vs NC significant"}}}
{"smiles": "O=C(CO)[C@H](O)[C@H](O)[C@H](O)CO", "note": "[DRH, D-ribo-2-hexulose]", "values": [{"measurement": "thicknesses of the left hind legs", "setting": "aged mice", "value": "significantly increased"}, {"measurement": "expression level of myostatin", "setting": "myostatin", "value": "suppressed this increase to the level of the YC group"}, {"measurement": "expression of Atrogin1 gene", "setting": "[1]; all three groups (YC, NC, DRH)", "value": "no significant difference"}, {"measurement": "expression of FoxO3 gene", "setting": "[1]; all three groups (YC, NC, DRH)", "value": "no significant difference"}, {"measurement": "expression of MuRF1 gene", "setting": "[1]; all three groups (YC, NC, DRH)", "value": "no significant difference"}, {"measurement": "expression of MyoD gene", "setting": "[1]; all three groups (YC, NC, DRH)", "value": "no significant difference"}, {"measurement": "expression of Myf5 gene", "setting": "[1]; [5]", "value": "partially improved"}, {"measurement": "expression of Myf6 gene", "setting": "[1]; [5]", "value": "partially improved"}, {"measurement": "expression of Myogenin gene", "setting": "[1]; [5]", "value": "partially improved"}, {"measurement": "RT-PCR analysis and Western blotting on DEG", "setting": "[2]", "value": "consistent with those obtained by mRNA-seq analysis"}, {"measurement": "muscle fatty acid level", "setting": "[3]; DRH group vs NC group", "value": "no significant difference"}, {"measurement": "muscle total cholesterol (TC) level", "setting": "[3]; DRH group vs NC group", "value": "no significant difference"}, {"measurement": "plasma fatty acids", "setting": "[3]; DRH group vs NC group", "value": "significantly decreased"}, {"measurement": "plasma TC level", "setting": "[3]; increase in NC vs YC", "value": "improved"}, {"measurement": "plasma TG level", "setting": "[3]; increase in NC vs YC", "value": "improved"}, {"measurement": "muscle triglyceride (TG) level", "setting": "[3]; increase with aging", "value": "significantly reduced this increase"}, {"measurement": "level of inflammatory cytokine IL-1β", "setting": "TNF-α, IL-4, IL-1β, IL-6", "value": "not significantly different"}, {"measurement": "level of inflammatory cytokine IL-4", "setting": "TNF-α, IL-4, IL-1β, IL-6", "value": "not significantly different"}, {"measurement": "level of inflammatory cytokine IL-6", "setting": "TNF-α, IL-4, IL-1β, IL-6", "value": "not significantly different"}, {"measurement": "level of inflammatory cytokine TNF-α", "setting": "TNF-α, IL-4, IL-1β, IL-6", "value": "not significantly different"}, {"measurement": "cortisol level", "setting": "[4]; DRH group", "value": "decreased"}, {"measurement": "testosterone level", "setting": "[4]; DRH group vs NC group", "value": "did not show a significant difference"}]}
